Measurements reported in the NIST ThermoML archive (doi:10.1021/je0497698).
± gives the expanded uncertainty stated by the source.

Settings: Liquid

vapor or sublimation pressure (273.15 K) | vapor or sublimation pressure (283.15 K) | vapor or sublimation pressure (293.15 K) | vapor or sublimation pressure (303.15 K) | vapor or sublimation pressure (313.15 K) | SMILES
816.8 ± 2.2 kPa | 1111.8 ± 2.2 kPa | 1480.2 ± 2.4 kPa | 1930.4 ± 2.5 kPa | 2478 ± 2.8 kPa | FCF [difluoromethane]
587.8 ± 2.1 kPa | 781.2 ± 2.1 kPa | 1020.2 ± 2.2 kPa | 1308.2 ± 2.3 kPa | 1650.8 ± 2.5 kPa | C=CC [propene]
